Reference: paper PMC11999338, “Factor XI localization in human deep venous thrombus and function of activated factor XI on venous thrombus formation and hemostasis” (Research and Practice in Thrombosis and Haemostasis, 2025)
“Also recorded” adds a separate entry of the source.

How the values were obtained:
[1] = tested on: PT and aPTT; assay: Coagulation parameters (PT, aPTT) after oral administration in rabbits, denudation/stenosis model; assay type: in vivo, rabbit
Experimental: The protocols of the venous thrombosis and skin bleeding models in rabbits were as follows (Supplementary Figure 2). First, fasting rabbits were orally administered a solvent as a control (n = 10), a FXIa inhibitor (ONO-1600586, 5 mg/kg, n = 10; 15 mg/kg, n = 10; and 50 mg/kg, n = 11), or a FXa inhibitor (rivaroxaban, 1.5 mg/kg, 5 mg/kg, and 15 mg/kg, n = 10 each) using a Nelaton catheter of 5 mm diameter (IZUMO Health Co, Ltd) 90 minutes before thrombus formation. The thrombus formation and bleeding were performed under general anesthesia through the subcutaneous injection of a mixture of medetomidine hydrochloride (0.08 mg/kg body weight), butorphanol tartrate (0.2 mg/kg), and midazolam (0.4 mg/kg). Additional anesthesia with one-third amount of the above-mentioned mixture of drugs was administered 80 minutes after the first injection, and all surgical operations proceeded under aseptic conditions.
Blood samples were collected from the central ear arteries of rabbits before and 75 minutes and 4.5 hours after the administration of the solvent, ONO-1600586, and rivaroxaban in 3.8% sodium citrate (9:1 v/v) using 21-gauge needles. Plasma samples were centrifuged at 1500 × g for 15 minutes at room temperature. Prothrombin time (PT) and activated partial thromboplastin time (aPTT) were measured using a coagulation timer (KC-1 Delta, Tcoag Ireland Ltd) and reagents (aPTT: ACTIN, Siemens; PT: THROMBOCHECK PT+, Sysmex).

[2] = tested on: jugular vein thrombus; assay: Rabbit model of jugular vein thrombosis by endothelial denudation and luminal stenosis; assay type: in vivo; conditions: rabbits; for venous thrombus weight compared with control: 90 minutes before thrombus formation, thrombus weighed after 3 hours
Experimental: The protocols of the venous thrombosis and skin bleeding models in rabbits were as follows (Supplementary Figure 2). First, fasting rabbits were orally administered a solvent as a control (n = 10), a FXIa inhibitor (ONO-1600586, 5 mg/kg, n = 10; 15 mg/kg, n = 10; and 50 mg/kg, n = 11), or a FXa inhibitor ([…], n = 10 each) using a Nelaton catheter of 5 mm diameter (IZUMO Health Co, Ltd) 90 minutes before thrombus formation. […] Additional anesthesia with one-third amount of the above-mentioned mixture of drugs was administered 80 minutes after the first injection, and all surgical operations proceeded under aseptic conditions. Briefly, 90 minutes postadministration of the solvent, ONO-1600586, or rivaroxaban, venous thrombi were induced in rabbit jugular veins through endothelial denudation using a 3F balloon catheter (Edwards Lifesciences), according to a previous study, and the method was modified to induce luminal stenosis. A 2 mm polyethylene tube was placed outside the vessel. Both the jugular vein and polyethylene tube were ligated, and the tube was removed (Supplementary Figure 3). Next, 3 hours after thrombus formation and stenosis, the rabbits were infused with heparin (500 U/kg, i.v.) and then euthanized with an overdose of pentobarbital (60 mg/kg, i.v.). Subsequently, the animals were perfused with 50 mL phosphate-buffered saline (0.01 mol/L), and the jugular veins were sampled. The venous thrombi were immediately removed from the venous wall and weighed. […] Paraffin-embedded sections (4 μm thick) of the rabbit jugular vein thrombus were stained with HE and morphologically assessed. Consecutive sections of thrombi were immunohistochemically stained with antibodies against fibrin (Millipore) and GPIIb/IIIa (Affinity Biologicals Inc). Images were digitized using a photosensitive color CCD camera (BX51, OLYMPUS). Finally, the area of the red-stained erythrocytes in HE staining and the immunopositive areas for fibrin and GPIIb/IIIa were semiquantified using a color imaging morphometry system (WinROOF, Mitani).

[3] = tested on: skin bleeding; assay: Rabbit skin bleeding time and volume; assay type: in vivo; conditions: rabbits; for bleeding time / bleeding volume: skin incision 90 minutes after oral administration, ONO-1600586 5, 15, 50 mg/kg, rivaroxaban 1.5, 5, 15 mg/kg
Experimental: The protocols of the venous thrombosis and skin bleeding models in rabbits were as follows (Supplementary Figure 2). First, fasting rabbits were orally administered a solvent as a control (n = 10), a FXIa inhibitor (ONO-1600586, 5 mg/kg, n = 10; 15 mg/kg, n = 10; and 50 mg/kg, n = 11), or a FXa inhibitor (rivaroxaban, 1.5 mg/kg, 5 mg/kg, and 15 mg/kg, n = 10 each) using a Nelaton catheter of 5 mm diameter (IZUMO Health Co, Ltd) 90 minutes before thrombus formation. […] Additional anesthesia with one-third amount of the above-mentioned mixture of drugs was administered 80 minutes after the first injection, and all surgical operations proceeded under aseptic conditions. Ninety minutes after administering the solvent, rivaroxaban (1.5, 5, and 15 mg/kg), and ONO-1600586 (5, 15, and 50 mg/kg), skin bleeding was induced using 2 lines of 3 cm length incisions on both legs of the rabbit. Next, wet Kimwipes (Kimberly-Clark Corp) were placed on the injured lesions, and the bleeding time was measured. To measure the bleeding volume, we collected the Kimwipes into a falcon tube filled with 20 mL of saline each, 1 to 2 minutes for 30 minutes, and then removed the Kimwipes. The collected blood was centrifuged at 900 × g for 5 minutes at room temperature, and the supernatant was discarded. One milliliter of distilled water was added to the pellet and then hemolyzed. The bleeding volume was estimated using a spectrophotometer at 540 nm (SpectraMax 190 Microplate Reader, Molecular Devices, LLC). A standard curve was generated through the sequential dilution of rabbit blood. Finally, the number of erythrocytes was measured using a hematology analyzer (XP-300, Sysmex).

[4] = tested on: PT and aPTT; assay: PT and aPTT of human blood with inhibitor added in vitro; assay type: biochemical; conditions: ONO-1600586 3 μmol/L, rivaroxaban 1 μmol/L
[5] = 75 minutes after oral administration, ONO-1600586 5, 15, 50 mg/kg, rivaroxaban 1.5, 5, 15 mg/kg
[6] = 4.5 hours after oral administration, ONO-1600586 50 mg/mL, rivaroxaban 15 mg/mL (so in the source)

O=C(NC[C@H]1CN(c2ccc(N3CCOCC3=O)cc2)C(=O)O1)c1ccc(Cl)s1 [rivaroxaban]
PT after oral administration [1, 5]: dose-dependently prolonged
aPTT after oral administration [1, 5]: dose-dependently prolonged
PT after oral administration [1, 6]: prolonged
aPTT after oral administration [1, 6]: prolonged
venous thrombus weight compared with control ([2]; 1 mg/kg oral (so in the source)): tended to reduce
venous thrombus weight compared with control ([2]; 5 mg/kg oral): tended to reduce
venous thrombus weight compared with control ([2]; 15 mg/kg oral, 15 mg/kg): significantly reduced; also recorded: similarly reduced
immunopositive area of fibrin in venous thrombus ([2]; compared with control and ONO-1600586 groups): tended to be smaller
areas of erythrocytes or immunopositive areas of fibrin or GPIIb/IIIa in venous thrombus ([2]; histology of jugular vein thrombus, comparison among groups): did not differ
bleeding time compared with the control ([3]; 15 mg/kg oral): significantly prolonged
bleeding volume compared with the control ([3]; 15 mg/kg oral): increased
bleeding time [3]: prolonged bleeding time
bleeding volume [3]: increased bleeding volume dose-dependently
bleeding time ([3]; listed as Rivaroxaban): dose-dependently prolonged
bleeding volume ([3]; listed as Rivaroxaban): increased
PT compared with control [4]: 1.9 fold
aPTT compared with control [4]: 1.8 fold
PT ([4]; n = 8): 19 ± 3 s
aPTT ([4]; n = 8): 62 ± 5 s
